Results published in patent publication US9422296B2, “Fast-dissociating dopamine 2 receptor antagonists” (Janssen Pharmaceutica NV, priority 2007, dated 2016).
Read-outs that look alike come from different tables or passages of the source.

What was measured:
[1] = target: T1, human Dopamine D2L receptor (Homo sapiens, UniProt P14416); test: In vitro binding affinity for human D2L receptor ([3H]spiperone); conditions: membranes of human D2L receptor-transfected CHO cells, read-out: D2L binding pIC50 (converted)
T1 construct: expressed in transfected cells; host or cells: CHO cells (membranes)
Text: In order to find antipsychotic compounds active against positive and negative symptoms and cognitive impairment, and having an improved safety profile (low EPS incidence and no metabolic disorders), we have screened for compounds selectively interacting with the dopamine D2 receptor and dissociating fast from this receptor, and further having affinity for the dopamine D3 receptor as well as the serotonin 5-HT-6 receptor. Compounds were first screened for their D2 affinity in a binding assay using [^3H]spiperone and human D2L receptor cell membranes.
Pharmacology In Vitro Binding Affinity for Human D2L Receptor
Frozen membranes of human Dopamine D2L receptor-transfected CHO cells were thawed, briefly homogenised using an Ultra-Turrax T25 homogeniser and diluted in Tris-HCl assay buffer containing NaCl, CaCl2, MgCl2, KCl (50, 120, 2, 1, and 5 mM respectively, adjusted to pH 7.7 with HCl) to an appropriate protein concentration optimised for specific and non-specific binding. Radioligand [^3H]Spiperone (NEN, specific activity ˜70 Ci/mmol) was diluted in assay buffer at a concentration of 2 nmol/L. Prepared radioligand (50 μl), along with 50 μl of either the 10% DMSO control, Butaclamol (10^−6 mol/1 final concentration), or compound of interest, was then incubated (30 min, 37° C.) with 400 μl of the prepared membrane solution. Membrane-bound activity was filtered through a Packard Filtermate harvester onto GF/B Unifilterplates and washed with ice-cold Tris-HCl buffer (50 mM; pH 7.7; 6×0.5 ml). Filters were allowed to dry before adding scintillation fluid and counting in a Topcount scintillation counter. Percentage specific bound and competition binding curves were calculated using S-Plus software (Insightful).

[2] = target: T2, human D2L receptor (Homo sapiens, UniProt P14416); test: Fast dissociation: indirect assay of rate of dissociation from D2 receptor ([3H]spiperone binding after pre-incubation with compound); conditions: [3H]spiperone binding as % of total binding capacity after 5 min on filter; compound pre-incubated at 4 times its IC50; >50% = faster than clozapine
T2 construct: expressed in transfected cells
Experimental: Compounds were first screened for their D2 affinity in a binding assay using [^3H]spiperone and human D2L receptor cell membranes.
Compounds at a concentration of 4 times their IC50 were first incubated for one hour with human D2L receptor cell membranes in a volume of 2 ml at 25° C., then filtered over glass-fibre filter under suction using a 40 well multividor Immediately after, the vacuum was released. 0.4 ml of pre-warmed buffer (25° C.) containing 1 nM [^3H]spiperone was added on the filter for 5 minutes. The incubation was stopped by initiating the vacuum and immediate rinsing with 2×5 ml of ice-cold buffer. The filter-bound radioactivity was measured in a liquid scintillation spectrometer. The principle of the assay is based on the assumption that the faster a compound dissociates from the D2 receptor, the faster [^3H]spiperone binds to the D2 receptor.

[3] = target: T3, human Serotonin 5HT6 receptor (Homo sapiens, UniProt P50406); test: In vitro binding affinity for human 5HT6 receptor ([3H]lysergic acid diethylamide); conditions: [3H]LSD, membranes of human 5HT6 receptor-transfected HEK cells; for IC50: read-out: 5-HT6 binding pIC50 (converted)
T3 construct: expressed in transfected cells; host or cells: HEK cells (membranes)
Experimental: In Vitro Binding Affinity for Human 5HT6 Receptor
Frozen membranes of human Serotonin 5HT6 receptor-transfected HEK cells were thawed, briefly homogenized using an Ultra-Turrax T25 homogeniser and diluted in 50 mM Tris-HCl assay buffer containing 10 mM MgCl2, 1 mM EDTA and 10 μM Pargyline (adjusted to pH 7.4 with HCl) to an appropriate protein concentration optimized for specific and non-specific binding. Radioligand [^3H]Lysergic acid diethylamide (Perkin Elmer, specific activity ˜80 Ci/mmol) was diluted in assay buffer at a concentration of 20 nM. Radioligand (20 μl), along with 40 μl of either the 10% DMSO control, Methiothepine (10^−5 M final concentration), or compound of interest, was then incubated with 70 μl of the prepared membrane solution and 70 μl of WGA coated PVT beads (0.25 mg/well final concentration). After shaking for 24 hours at RT plates were counted in a Topcount™ scintillation counter. Percentage specific binding and competition binding curves were calculated using S-Plus software (Insightful).

[4] = target: T4, human Dopamine D3 receptor (Homo sapiens, UniProt P35462); test: In vitro binding affinity for human D3 receptor ([125I]iodosulpride)
T4 construct: expressed in transfected cells; host or cells: CHO cells (membranes)
Experimental: In Vitro Binding Affinity for Human D3 Receptor
Frozen membranes of human Dopamine D3 receptor-transfected CHO cells were thawed, briefly homogenized using an Ultra-Turrax T25 homogeniser and diluted in 50 mM Tris-HCl assay buffer containing 120 mM NaCl, 2 mM CaCl2, 1 mM MgCl2, 5 mM KCl and 0.1% BSA (adjusted to pH 7.4 with HCl) to an appropriate protein concentration optimized for specific and non-specific binding. Radioligand [^125I]Iodosulpride (Amersham, specific activity ˜2000 Ci/mmol) was diluted in assay buffer at a concentration of 2 nM. Prepared radioligand (20 μl), along with 40 μl of either the 10% DMSO control, Risperidone (10^−6M final concentration), or compound of interest, was then incubated with 70 μl of the prepared membrane solution and 70 μl of WGA coated PVT beads (0.25 mg/well final concentration). After shaking for 24 hours at RT plates were counted in a Topcount™ scintillation counter. Percentage specific binding and competition binding curves were calculated using S-Plus software (Insightful).

[5] = tested on: subchronic PCP-induced attentional set shifting; test: Reversal of subchronic PCP-induced attentional set shifting in rats; format: in vivo
Text: Compound E1 was further found to be active in the ‘Reversal of subchronic PCP-induced attentional set shifting in rats’ test (J. S. Rodefer et al., Neurospychopharmacology (2007), 1-10).

[6] = [125I]iodosulpride, membranes of human D3 receptor-transfected CHO cells, read-out: D3 binding pIC50 (converted)

T4 sequence (P35462 whole entry): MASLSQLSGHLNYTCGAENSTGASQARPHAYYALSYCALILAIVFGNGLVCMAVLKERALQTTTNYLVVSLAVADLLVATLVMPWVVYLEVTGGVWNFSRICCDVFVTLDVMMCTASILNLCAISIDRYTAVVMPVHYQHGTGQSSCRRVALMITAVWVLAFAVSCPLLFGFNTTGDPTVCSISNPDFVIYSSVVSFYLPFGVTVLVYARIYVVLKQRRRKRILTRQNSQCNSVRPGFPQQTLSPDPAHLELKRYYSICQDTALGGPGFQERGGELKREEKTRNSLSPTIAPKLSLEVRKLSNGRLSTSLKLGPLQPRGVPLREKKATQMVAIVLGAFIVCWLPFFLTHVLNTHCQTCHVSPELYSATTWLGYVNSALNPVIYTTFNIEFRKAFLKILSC
T3 sequence (P50406 whole entry): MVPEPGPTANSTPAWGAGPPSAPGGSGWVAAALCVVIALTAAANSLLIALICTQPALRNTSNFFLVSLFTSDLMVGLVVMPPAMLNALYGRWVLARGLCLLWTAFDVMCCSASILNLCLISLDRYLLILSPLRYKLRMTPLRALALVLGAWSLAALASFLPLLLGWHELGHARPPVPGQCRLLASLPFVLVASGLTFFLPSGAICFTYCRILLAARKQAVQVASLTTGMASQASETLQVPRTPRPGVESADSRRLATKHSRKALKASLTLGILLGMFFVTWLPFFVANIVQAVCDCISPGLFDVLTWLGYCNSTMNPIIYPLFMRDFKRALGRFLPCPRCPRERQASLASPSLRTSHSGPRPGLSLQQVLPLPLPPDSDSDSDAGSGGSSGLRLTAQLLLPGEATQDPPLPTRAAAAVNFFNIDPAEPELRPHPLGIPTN
T2 sequence (P14416 whole entry): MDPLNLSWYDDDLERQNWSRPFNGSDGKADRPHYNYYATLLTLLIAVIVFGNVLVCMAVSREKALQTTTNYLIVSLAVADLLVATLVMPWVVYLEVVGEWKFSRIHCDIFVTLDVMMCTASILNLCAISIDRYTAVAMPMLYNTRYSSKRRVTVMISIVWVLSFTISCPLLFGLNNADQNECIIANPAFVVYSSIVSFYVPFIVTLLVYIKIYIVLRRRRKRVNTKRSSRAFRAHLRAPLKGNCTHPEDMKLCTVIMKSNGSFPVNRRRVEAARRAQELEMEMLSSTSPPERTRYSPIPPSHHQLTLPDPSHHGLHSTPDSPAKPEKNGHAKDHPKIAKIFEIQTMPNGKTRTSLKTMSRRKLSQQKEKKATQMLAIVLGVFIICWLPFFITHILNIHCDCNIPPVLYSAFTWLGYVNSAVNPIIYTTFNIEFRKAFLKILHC
T1 sequence (P14416 whole entry): as above

Structure (SMILES)	IC50 [1] [nM]	D2 dissociation [2] [%]	IC50 [3] [nM]	IC50 [4, 6] [nM]	melting point [°C]	activity in reversal of subchronic PCP-induced attentional set shifting [5]	5-HT6 binding pIC50 [3]	IC50 [4] [nM]
FC(F)(F)c1nnc(N2CCNCC2)cc1-c1ccsc1 [Example E7, 6-Piperazin-1-yl-4-thiophen-3-yl-3-trifluoromethyl-pyridazine]	871	81	1550	> 10000	244.3	–	–	–
Fc1ccc(-c2ccc(-c3cc(N4CCNCC4)nnc3C(F)(F)F)cc2)cc1 [Example E9, 4-(4′-Fluorobiphenyl-4-yl)-6-piperazin-1-yl-3-trifluoromethyl-pyridazine]	794	48	1820	47.9	161.9	–	–	–
FC(F)(F)c1nnc(N2CCN3CCCC3C2)cc1-c1ccccc1 (racemic) [Example E5, 2-(5-Phenyl-6-trifluoromethyl-pyridazin-3-yl)-octahydro-pyrrolo[1,2-a]pyrazine]	1260	84	1020	> 10000	–	–	–	–
N#Cc1nnc(N2CCNCC2)cc1-c1ccccc1 [Example E10, 4-Phenyl-6-piperazin-1-yl-pyridazine-3-carbonitrile]	5620	86	4570	> 10000	271.6	–	–	–
CCN1CCN(c2cc(-c3ccccc3)c(C(F)(F)F)nn2)CC1 [Example E2, 6-(4-Ethylpiperazin-1-yl)-4-phenyl-3-trifluoromethyl-pyridazine]	204	80.5	3160	25.1	–	–	–	–
FC(F)(F)c1nnc(N2CCNCC2)cc1-c1ccccc1 [Example E1, 4-Phenyl-6-piperazin-1-yl-3-trifluoromethyl-pyridazine]	1100	75	589	66.1	130.7	active	–	–
Cc1ccccc1-c1cc(N2CCNCC2)nnc1C(F)(F)F [Example E8, 6-Piperazin-1-yl-4-o-tolyl-3-trifluoromethyl-pyridazine]	1000	78.5	263	> 10000	–	–	–	–
Fc1cc(F)cc(CN2CCN(c3cc(-c4ccccc4)c(C(F)(F)F)nn3)CC2)c1 [Example E3, 6-[4-(3,5-Difluorobenzyl)piperazin-1-yl]-4-phenyl-3-trifluoromethyl-pyridazine]	617	–	–	> 10000	138.8	–	>5	–
Fc1ccc(-c2cc(N3CCNCC3)nnc2C(F)(F)F)cc1 [Example E6, 4-(4-Fluorophenyl)-6-piperazin-1-yl-3-trifluoromethyl-pyridazine]	372	55	214	–	137.4	–	–	36.3
CCCCN1CCN(c2cc(-c3ccccc3)c(C(F)(F)F)nn2)CC1 [Example E25]	69.2	–	2690	2.63	102.9	–	–	–
